Experimental findings from patent EP2149374A1 (WORLD-TRADE IMPORT-EXPORT, WTIE, A.G., priority 2007, dated 2008) are described below.

The test system of one assay is E. coli. Put plainly: Comparative clinical study: urocultive by antibiogram, urine counts (colony-forming units). It is filed as in vivo, Escherichia coli. Conditions: n=50 per group. An excerpt: (§1) Urinary tract infection constitutes the most frequent urologic disease and is one of the most common infections in human beings. Urinary infection encompasses several clinical conditions, so the proper study thereof is very important for a suitable diagnose and treatment, in view of the extensive and not inconsiderable hospital and healthcare expenses these involve.
(§2) Inclusion criteria were the following: • - Patients from 18 to 75 years of age. • - Patients having a non-complex acute urinary infection diagnose. • > 12 leukocytes per mm3 in urine sediments. • - Urine counts of > 100,000 UFC/ml. • - Urine pH over 6.0. • - Microorganism identification.
(§3) Only twice a day for 5 days,- group 2, received Vitamin C 100 mg.
Table 4. Urine Counts in UFC/ml. (Colony-Forming Units).

A short description of assay [1]: Comparative clinical study: general urine examination (leukocytes in urine sediments, urine pH). It counts as in vivo, patients. Particulars: n=50 per group.
From the text: as §1, §2, §3
General urine examination determined the color, appearance and density thereof, as well as the pH, Proteins, Glucose, Ketones, Blood, Bilirubin, Urobilinogen, Nitrites, Density and Leukocytes. […] Table 2. Leukocytes per mm3 in baseline urine sediments and up to Day 5 of the treatment.

The nature of assay [2]: Comparative clinical study: overall healing process (conclusions). It counts as in vivo. Particulars: patients with acute non-complex urinary tract infection, 5 days of treatment. On the procedure: as §1, §3

Regarding `O=C1O[C@H]([C@@H](O)CO)C(O)=C1O` [Vitamin C, Ascorbic Acid], the “UFC/ml (Day 1)” value with E. coli (baseline urine counts (Colony-Forming Units), before treatment) is >100,000/ml. UFC/ml. The “UFC/ml Day 5” value in the assay on E. coli (urine counts (Colony-Forming Units), Day 5 of the treatment, twice a day for 5 days) is 90.000/ml. UFC/ml. For the same compound, the “pH (Day 1)” value in assay [1] (baseline urine pH, before treatment) stood at 7.6. In assay [1] (baseline urine sediments, before treatment), the “Leukocytes (Day 1)” value is listed as above 13 per mm3. The “pH (Day 5)” value in assay [1] (urine pH, Day 5 of the treatment, twice a day for 5 days) is recorded as 5.0. Also, the “Leukocytes Day 5” value in assay [1] (urine sediments, Day 5 of the treatment, twice a day for 5 days) is reported as below 10 per mm3. Besides, the healing process entry in assay [2] was “not sufficient by itself to achieve a healing process”.
